{"source": "PubChem BioAssay (NCI)", "assay_in_all_cases": "NCI anticancer screen, dose series, 48 h", "key": {"IGROV1 ovarian": {"system": "IGROV1 ovarian"}, "SR leukemia": {"system": "SR leukemia"}, "NCI/ADR-RES ovarian": {"system": "NCI/ADR-RES ovarian"}, "PC-3 prostate": {"system": "PC-3 prostate"}, "K-562 leukemia": {"system": "K-562 leukemia"}, "RPMI-8226 leukemia": {"system": "RPMI-8226 leukemia"}, "A498 renal": {"system": "A498 renal"}, "T-47D breast": {"system": "T-47D breast"}, "EKVX NSCLC": {"system": "EKVX NSCLC"}, "MDA-MB-435": {"system": "MDA-MB-435"}, "DU-145 prostate": {"system": "DU-145 prostate"}, "HS 578T breast": {"system": "HS 578T breast"}, "SK-OV-3 ovarian": {"system": "SK-OV-3 ovarian"}, "MCF7 breast": {"system": "MCF7 breast"}, "COLO 205 colon": {"system": "COLO 205 colon"}, "HOP-62 NSCLC": {"system": "HOP-62 NSCLC"}, "OVCAR-4 ovarian": {"system": "OVCAR-4 ovarian"}, "OVCAR-5 ovarian": {"system": "OVCAR-5 ovarian"}, "A549 NSCLC": {"system": "A549 NSCLC"}, "CCRF-CEM leukemia": {"system": "CCRF-CEM leukemia"}, "LOX IMVI melanoma": {"system": "LOX IMVI melanoma"}, "M14 melanoma": {"system": "M14 melanoma"}, "RXF 393 renal": {"system": "RXF 393 renal"}, "MDA-MB-231 breast": {"system": "MDA-MB-231 breast"}, "SF-268 CNS": {"system": "SF-268 CNS"}, "UACC-257 melanoma": {"system": "UACC-257 melanoma"}, "ACHN renal": {"system": "ACHN renal"}, "SK-MEL-5 melanoma": {"system": "SK-MEL-5 melanoma"}, "NCI-H460 lung": {"system": "NCI-H460 lung"}, "OVCAR-8 ovarian": {"system": "OVCAR-8 ovarian"}, "SNB-19 CNS": {"system": "SNB-19 CNS"}, "MALME-3M melanoma": {"system": "MALME-3M melanoma"}, "OVCAR-3 ovarian": {"system": "OVCAR-3 ovarian"}, "HL-60(TB) leukemia": {"system": "HL-60(TB) leukemia"}, "SF-539 CNS": {"system": "SF-539 CNS"}, "NCI-H226 lung": {"system": "NCI-H226 lung"}, "786-0 renal": {"system": "786-0 renal"}, "HCT-116 colon": {"system": "HCT-116 colon"}, "BT-549 breast": {"system": "BT-549 breast"}, "U251 CNS": {"system": "U251 CNS"}, "SNB-75 CNS": {"system": "SNB-75 CNS"}, "MOLT-4 leukemia": {"system": "MOLT-4 leukemia"}, "HCT-15 colon": {"system": "HCT-15 colon"}, "MDA-N": {"system": "MDA-N"}, "CAKI-1 renal": {"system": "CAKI-1 renal"}, "KM12 colon": {"system": "KM12 colon"}, "SK-MEL-2 melanoma": {"system": "SK-MEL-2 melanoma"}, "HOP-92 NSCLC": {"system": "HOP-92 NSCLC"}, "UO-31 renal": {"system": "UO-31 renal"}, "SF-295 CNS": {"system": "SF-295 CNS"}, "TK-10 renal": {"system": "TK-10 renal"}, "SW-620 colon": {"system": "SW-620 colon"}, "SN12C renal": {"system": "SN12C renal"}, "SK-MEL-28 melanoma": {"system": "SK-MEL-28 melanoma"}, "HCC-2998 colon": {"system": "HCC-2998 colon"}, "HT29 colon": {"system": "HT29 colon"}, "NCI-H23 lung": {"system": "NCI-H23 lung"}}, "note": "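All cell lines were grown in 96-well plates and treated with compound for 48 hours. TGI is the concentration that stops growth completely.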", "data": [{"compound": "Cc1ccc(C(=O)N/N=C(\\N=Nc2ccc([N+](=O)[O-])cc2)c2ccc(N(CCC#N)CCC#N)cc2C)cc1", "values": [{"measurement": "TGI", "setting": "IGROV1 ovarian", "value": "> 100", "unit": "µM"}, {"measurement": "TGI", "setting": "SR leukemia", "value": "> 100", "unit": "µM"}, {"measurement": "TGI", "setting": "NCI/ADR-RES ovarian", "value": "> 100", "unit": "µM"}, {"measurement": "TGI", "setting": "PC-3 prostate", "value": "> 100", "unit": "µM"}, {"measurement": "TGI", "setting": "K-562 leukemia", "value": "> 100", "unit": "µM"}, {"measurement": "TGI", "setting": "RPMI-8226 leukemia", "value": "> 100", "unit": "µM"}, {"measurement": "TGI", "setting": "A498 renal", "value": "> 100", "unit": "µM"}, {"measurement": "TGI", "setting": "T-47D breast", "value": 83.4, "unit": "µM"}, {"measurement": "TGI", "setting": "EKVX NSCLC", "value": "> 100", "unit": "µM"}, {"measurement": "TGI", "setting": "MDA-MB-435", "value": "> 100", "unit": "µM"}, {"measurement": "TGI", "setting": "DU-145 prostate", "value": "> 100", "unit": "µM"}, {"measurement": "TGI", "setting": "HS 578T breast", "value": "> 100", "unit": "µM"}, {"measurement": "TGI", "setting": "SK-OV-3 ovarian", "value": "> 100", "unit": "µM"}, {"measurement": "TGI", "setting": "MCF7 breast", "value": "> 100", "unit": "µM"}, {"measurement": "TGI", "setting": "COLO 205 colon", "value": "> 100", "unit": "µM"}, {"measurement": "TGI", "setting": "HOP-62 NSCLC", "value": "> 100", "unit": "µM"}, {"measurement": "TGI", "setting": "OVCAR-4 ovarian", "value": "> 100", "unit": "µM"}, {"measurement": "TGI", "setting": "OVCAR-5 ovarian", "value": "> 100", "unit": "µM"}, {"measurement": "TGI", "setting": "A549 NSCLC", "value": "> 100", "unit": "µM"}, {"measurement": "TGI", "setting": "CCRF-CEM leukemia", "value": "> 100", "unit": "µM"}, {"measurement": "TGI", "setting": "LOX IMVI melanoma", "value": "> 100", "unit": "µM"}, {"measurement": "TGI", "setting": "M14 melanoma", "value": "> 100", "unit": "µM"}, {"measurement": "TGI", "setting": "RXF 393 renal", "value": 50.9, "unit": "µM"}, {"measurement": "TGI", "setting": "MDA-MB-231 breast", "value": "> 100", "unit": "µM"}, {"measurement": "TGI", "setting": "SF-268 CNS", "value": "> 100", "unit": "µM"}, {"measurement": "TGI", "setting": "UACC-257 melanoma", "value": "> 100", "unit": "µM"}, {"measurement": "TGI", "setting": "ACHN renal", "value": "> 100", "unit": "µM"}, {"measurement": "TGI", "setting": "SK-MEL-5 melanoma", "value": "> 100", "unit": "µM"}, {"measurement": "TGI", "setting": "NCI-H460 lung", "value": "> 100", "unit": "µM"}, {"measurement": "TGI", "setting": "OVCAR-8 ovarian", "value": "> 100", "unit": "µM"}, {"measurement": "TGI", "setting": "SNB-19 CNS", "value": "> 100", "unit": "µM"}, {"measurement": "TGI", "setting": "MALME-3M melanoma", "value": "> 100", "unit": "µM"}, {"measurement": "TGI", "setting": "OVCAR-3 ovarian", "value": "> 100", "unit": "µM"}, {"measurement": "TGI", "setting": "HL-60(TB) leukemia", "value": 65.7, "unit": "µM"}, {"measurement": "TGI", "setting": "SF-539 CNS", "value": "> 100", "unit": "µM"}, {"measurement": "TGI", "setting": "NCI-H226 lung", "value": "> 100", "unit": "µM"}, {"measurement": "TGI", "setting": "786-0 renal", "value": "> 100", "unit": "µM"}, {"measurement": "TGI", "setting": "HCT-116 colon", "value": "> 100", "unit": "µM"}, {"measurement": "TGI", "setting": "BT-549 breast", "value": "> 100", "unit": "µM"}, {"measurement": "TGI", "setting": "U251 CNS", "value": "> 100", "unit": "µM"}, {"measurement": "TGI", "setting": "SNB-75 CNS", "value": "> 100", "unit": "µM"}, {"measurement": "TGI", "setting": "MOLT-4 leukemia", "value": "> 100", "unit": "µM"}, {"measurement": "TGI", "setting": "HCT-15 colon", "value": "> 100", "unit": "µM"}, {"measurement": "TGI", "setting": "MDA-N", "value": "> 100", "unit": "µM"}, {"measurement": "TGI", "setting": "CAKI-1 renal", "value": "> 100", "unit": "µM"}, {"measurement": "TGI", "setting": "KM12 colon", "value": "> 100", "unit": "µM"}, {"measurement": "TGI", "setting": "SK-MEL-2 melanoma", "value": "> 100", "unit": "µM"}, {"measurement": "TGI", "setting": "HOP-92 NSCLC", "value": "> 100", "unit": "µM"}, {"measurement": "TGI", "setting": "UO-31 renal", "value": "> 100", "unit": "µM"}, {"measurement": "TGI", "setting": "SF-295 CNS", "value": "> 100", "unit": "µM"}, {"measurement": "TGI", "setting": "TK-10 renal", "value": "> 100", "unit": "µM"}, {"measurement": "TGI", "setting": "SW-620 colon", "value": "> 100", "unit": "µM"}, {"measurement": "TGI", "setting": "SN12C renal", "value": "> 100", "unit": "µM"}, {"measurement": "TGI", "setting": "SK-MEL-28 melanoma", "value": "> 100", "unit": "µM"}, {"measurement": "TGI", "setting": "HCC-2998 colon", "value": "> 100", "unit": "µM"}, {"measurement": "TGI", "setting": "HT29 colon", "value": "> 100", "unit": "µM"}, {"measurement": "TGI", "setting": "NCI-H23 lung", "value": "> 100", "unit": "µM"}]}]}
